Test results published in paper PMC4638363, “Linear Interaction Energy Based Prediction of Cytochrome P450 1A2 Binding Affinities with Reliability Estimation” (PLoS ONE, 2015).
Where two headings read alike, the source gives them in different places. Each block holds one compound with its values, some of them ahead of it.

Assays:
[1] = system: CYP 1A2; settings: cited from earlier work
[2] = system: CYP 1A2; assay: Source 1: Bayer HealthCare screen, phenacetin as substrate probe on pooled human liver microsomes; settings: for ΔG bind (lit): from literature IC50, Source 1 (Ref. 57); for ΔGbind^Obs: from literature IC50, Source 1
[3] = biological target: T1, human CYP 1A2 (Homo sapiens, UniProt P05177); assay: in-house CYP 1A2 inhibition assay with 7-methoxyresorufin as substrate (resorufin fluorescence); settings: for ΔΔG bind: difference in ΔG bind between literature and in-house determined values; for ΔG bind (inhouse): from in-house IC50 via Cheng-Prusoff and RTln(Ki)
T1 sequence (P05177 1-516): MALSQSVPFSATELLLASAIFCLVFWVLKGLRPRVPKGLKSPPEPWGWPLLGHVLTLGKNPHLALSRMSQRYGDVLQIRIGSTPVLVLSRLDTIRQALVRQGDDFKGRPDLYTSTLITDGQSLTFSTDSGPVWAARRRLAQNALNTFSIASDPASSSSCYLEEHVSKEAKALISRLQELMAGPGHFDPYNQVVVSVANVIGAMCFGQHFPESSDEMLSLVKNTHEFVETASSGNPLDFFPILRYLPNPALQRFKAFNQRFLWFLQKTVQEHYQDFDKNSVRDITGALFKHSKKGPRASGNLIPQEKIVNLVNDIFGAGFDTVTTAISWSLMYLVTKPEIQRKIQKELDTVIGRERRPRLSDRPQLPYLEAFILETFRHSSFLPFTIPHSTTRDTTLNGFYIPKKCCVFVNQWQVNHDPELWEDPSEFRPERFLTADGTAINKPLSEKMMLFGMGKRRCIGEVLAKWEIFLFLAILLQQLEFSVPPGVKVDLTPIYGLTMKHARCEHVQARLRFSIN

[4] = system: CYP 1A2; settings: cited from earlier work; remark: listed apart in the source
[5] = biological target: T1, human CYP 1A2
[6] = system: CYP 1A2; settings: cited from earlier work; remark: listed apart in the source
[7] = system: CYP 1A2; settings: for ΔGbind^Obs: training set, from literature IC50, Source 2
[8] = biological target: T1, human CYP 1A2; settings: for ΔG bind (inhouse): human, 10 min, pH 7.4
[9] = system: CYP 1A2; settings: human
[10] = system: recombinant CYP 1A2; settings: recombinant enzyme; cited from earlier work
[11] = system: recombinant CYP 1A2; settings: human
[12] = Table A, Source 1, ref Bayer HealthCare databases for CYP inhibition (eTOX)
[13] = read-out: IC 50 (lit), Source 1, pooled human liver microsomes, phenacetin probe
[14] = Table A, Source 2, ref Cohen et al., Drug Metab. Dispos. 2003

Compound: COc1ccccc1OCCNCC(O)COc1cccc2[nH]c3ccccc3c12 (stereo not drawn) [Compound 3, Carvedilol]
IC50 [1, 12]: 5.1 µM
IC50 [1, 13]: 5.91 µM
ΔG bind (lit) [2]: -7.6 kcal/mol
IC50 [3]: 5 ± 0.2 µM
ΔΔG bind [3]: 0.096 kcal/mol
ΔG bind (inhouse) [3]: -7.7 ± 0.024 kcal/mol
Reported inhibition mechanism ([4]; literature): Substrate^62

Compound: O=c1c(O)c(-c2ccc(O)c(O)c2)oc2cc(O)cc(O)c12 [Compound 14, Quercetin]
Reported inhibition mechanism ([4]; literature): Competitive^67

ΔGbind^Obs [7]: -8.32 kcal/mol
Residual (ΔGbind^Obs—ΔGbind^Calc) ([5]; training set): -1.86 kcal/mol
Compound: Cc1cccc(C)c1OCC(C)N (stereo not drawn) [Compound 23, Mexiletine]
Reported inhibition mechanism ([4]; literature): Competitive^70
IC50 [6, 14]: 1.84 µM

ΔGbind^Obs ([2]; test set): -7.17 kcal/mol
Compound: O=C1C[C@@H](c2ccc(O)cc2)Oc2cc(O)cc(O)c21 [Compound 17, Naringenin]
IC50 [1, 12]: 12.3 µM
Reported inhibition mechanism ([4]; literature): Substrate^68

Compound: CCOc1ccc(NC(C)=O)cc1 [Compound 6, Phenacetin]
Reported inhibition mechanism ([4]; literature): Substrate^64

ΔGbind^Obs [7]: -7.86 kcal/mol
Residual (ΔGbind^Obs—ΔGbind^Calc) ([5]; training set): -0.263 kcal/mol
Compound: CC(C)NCC(O)COc1cccc2ccccc12 (stereo not drawn) [Compound 25, Propranolol]
Reported inhibition mechanism ([4]; literature): Substrate^72
IC50 [6, 14]: 3.84 µM

Compound: C[C@]12CC[C@@H]3c4cc(F)c(O)cc4CC[C@H]3[C@@H]1CC[C@@H]2O [Compound 20, 2-Fluoroestradiol]
IC50 [1, 12]: 26.8 µM
ΔGbind^Obs ([2]; test set): -6.72 kcal/mol
Residual (ΔGbind^Obs–ΔG bind ^Calc), error in prediction ([5]; test set): 1.67 kcal/mol

K m [8]: 2.5 µM
Compound: COc1ccc2nc3ccc(=O)cc-3oc2c1 [7-Methoxyresorufin]

Compound: Nc1c2c(nc3ccccc13)CCCC2 [Compound 2, Tacrine]
IC50 ([1]; microsomes): 5.2 µM
ΔG bind (lit) [9]: -7.67 kcal/mol
ΔGbind^Obs [9]: -7.7 kcal/mol
IC50 [3]: 2.3 ± 1 µM
Reported inhibition mechanism [4]: Substrate^61
Residual (ΔGbind^Obs—ΔGbind^Calc) [5]: -0.669 kcal/mol
ΔΔG bind [8]: 0.502 kcal/mol
ΔG bind (inhouse) [8]: -8.17 ± 0.287 kcal/mol

ΔGbind^Obs ([2]; training set): -7.22 kcal/mol
Residual (ΔGbind^Obs—ΔGbind^Calc) ([5]; training set): 0.693 kcal/mol
Compound: O=C(O)c1cccnc1Nc1cccc(C(F)(F)F)c1 [Compound 16, Niflumic Acid]
IC50 [1, 12]: 11.6 µM

Compound: Cc1cccc(Nc2ccccc2C(=O)O)c1C [Compound 1, Mefenamic Acid]
IC50 [1, 13]: 14 µM
ΔG bind (lit) [2]: -7.1 kcal/mol
ΔGbind^Obs ([2]; training set): -7.1 kcal/mol
IC50 [3]: 19 ± 7 µM
ΔΔG bind [3]: -0.19 kcal/mol
ΔG bind (inhouse) [3]: -6.91 ± 0.239 kcal/mol
Reported inhibition mechanism ([4]; literature): Competitive^60
Residual (ΔGbind^Obs—ΔGbind^Calc) ([5]; training set): 1.03 kcal/mol

Compound: Oc1ccc2ccccc2c1 [Compound 10, 2-naphthol]
IC50 [3]: 4.4 ± 1.2 µM
IC50 [10]: 17 ± 1.5 µM
ΔG bind (lit) [11]: -6.96 ± 0.048 kcal/mol
ΔGbind^Obs [11]: -6.96 kcal/mol
Residual (ΔGbind^Obs–ΔG bind ^Calc), error in prediction [5]: -1.55 kcal/mol
ΔΔG bind [8]: 0.813 kcal/mol
ΔG bind (inhouse) [8]: -7.79 ± 0.17 kcal/mol
